Experimental data reported in US20080306037A1, “Product for Use in the Prevention and Treatment of Cardiovascular Diseases, Cancer and Chronic Inflammatory Diseases” (priority 2005, published 2008).

Test system: NF-kB transcription factor
Experiment: Luciferase trial: inhibition of NF-kB activation by TNFα in 5.1 linfoid cells (Jurkat clone, HIV-LTR luciferase)
Assay type: cell-based
Conditions: concentration 125 μg/ml, 30 min pre-incubation, TNFα 2 ng/ml 6 hours
Description: Cells. A cellular line 5.1, that is a clone derived from Jurkat stably transfected with a plasmid that contains the gene of the luciferase channelled by the HIV-LTR promoter, an exponential growth is maintained in a RPMI 1640 medium supplemented with a 10% of an foetal bovine serum deactivated by heat, 2 mM of L-glutamine, 1 mM HEPES, antibiotics and 200 μg/ml of G418. Luciferase Trial. […] Next, the cells were damaged in 25 mM tris-phosphate pH 7,8, 8 mM MgCl2 1 mM DTT, 1% Triton X-100, y 7% glycerol. The luciferase activity was measured using Autolumat LB 9501 following the instructions of the luciferase trial kit and the protein concentration was measured by the Bradford method. In order eliminate the background noise caused by the lysis solution, this value was deducted in each value of the experiment and the activation was expressed as proportional induction compared to the untreated cells. Cells. The 5.1 cellular line was used, as and how described in example 1. Luciferase Trial. The 5.1 cellular line was pre-incubated for 30 minutes with oleic acid in the concentrations as stated, followed by stimulation with TNFα (2 ng/ml) for 6 hours. The NF-kB transcriptional activity was measured in the same way as in example 1. Cells. The 5.1 cellular line was used, as and how described in example 1. Luciferase Trial. […] The NF-kB transcriptional activity was measured in the same way as in example 1.

CCCCCCCC/C=C\CCCCCCCC(=O)O [oleic acid]
activation index (NF-kB transcription factor activation, luciferase, proportional induction compared to untreated cells): 7-8
